Results reported in US7378494B2, “Pituitary adenylate cyclase activating peptide (PACAP) receptor (VPAC2) agonist peptide” (Bayer HealthCare AG, priority 2002, dated 2008).

Biological target: T1, VPAC1 (Homo sapiens, UniProt P32241)
T1 sequence (P32241 31-457): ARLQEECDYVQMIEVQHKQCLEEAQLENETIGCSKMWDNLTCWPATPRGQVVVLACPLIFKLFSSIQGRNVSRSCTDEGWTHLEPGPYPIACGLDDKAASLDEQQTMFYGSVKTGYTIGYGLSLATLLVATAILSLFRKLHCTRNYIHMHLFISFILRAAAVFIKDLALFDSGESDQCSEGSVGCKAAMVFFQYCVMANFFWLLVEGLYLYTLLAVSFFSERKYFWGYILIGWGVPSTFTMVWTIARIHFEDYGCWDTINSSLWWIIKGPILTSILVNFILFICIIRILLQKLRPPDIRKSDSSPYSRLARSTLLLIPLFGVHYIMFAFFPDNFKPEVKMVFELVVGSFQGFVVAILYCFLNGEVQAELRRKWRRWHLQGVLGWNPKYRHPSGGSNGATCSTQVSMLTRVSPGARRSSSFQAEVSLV
Assay: Cyclic AMP SPA, cells expressing VPAC1
Format: cell-based

- agonist activity on VPAC1 (in words): potent agonist
Substance: PACAP-27
